Data taken from PubChem BioAssay (NCI).
In brackets after ≈: the same amount, converted by molar mass. Several values for one entry are separate records, joined by “and”; a condition that tells them apart may be missing. Equal entries are not always repeated.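 96-well plates; 48 h exposure; 5 concentrations. Endpoints by linear interpolation between flanking doses. Not reached: highest tested concentration assigned. GI50: concentration for 50% inhibition of growth. Definition used: TGI = concentration required for complete inhibition of growth.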 Where a SMILES comes first, the peptide text is derived from it. [ ]: non-standard residue; d: D form. The star is where a group is joined. ξ: configuration not given here. NMeN = CN[C@@H](CC(N)=O)C(=O)O; NMeV = CN[C@H](C(=O)O)C(C)C; ξNMeV = CNC(C(=O)O)C(C)C; Boc = CC(C)(C)OC(=O)*; ξNMeA = CNC(C)C(=O)O

Experiments:
Experiment in all cases: DTP human tumour cell line panel, 48 h
CCRF-CEM leukemia = tested on: CCRF-CEM leukemia
M19-MEL melanoma = tested on: M19-MEL melanoma
MDA-MB-231 breast = tested on: MDA-MB-231 breast
NCI-H226 lung = tested on: NCI-H226 lung
NCI-H460 lung = tested on: NCI-H460 lung
NCI/ADR-RES ovarian = tested on: NCI/ADR-RES ovarian
OVCAR-4 ovarian = tested on: OVCAR-4 ovarian
SK-MEL-28 melanoma = tested on: SK-MEL-28 melanoma
UACC-62 melanoma = tested on: UACC-62 melanoma

Question: With COC(=O)C(C)N(C)C(=O)[C@H](CC(N)=O)N(C)C(=O)[C@@H]1CCCN1C(=O)[C@H](C(C)C)N(C)C(=O)C(C(C)C)N(C)C(=O)[C@@H](NC(=O)OC(C)(C)C)C(C)C (stereo not given in full) (Boc-V[ξNMeV][NMeV]P[NMeN][ξNMeA]-OMe) as the compound, how does the GI50 (CCRF-CEM leukemia) read?
Answer: The GI50 was 65.7 µM.

Question: And the TGI (CCRF-CEM leukemia)?
Answer: The TGI was greater than 100 µM.

Question: And the TGI (M19-MEL melanoma)?
Answer: Its TGI is greater than 100 µM.

Question: And the TGI (MDA-MB-231 breast)?
Answer: Its TGI is greater than 50 µM.

Question: What about the GI50 (NCI-H226 lung) of the same compound?
Answer: Its GI50 is greater than 100 µM.

Question: What about the TGI (NCI-H226 lung) of the same compound?
Answer: The TGI was greater than 100 µM.

Question: And the GI50 (NCI-H460 lung)?
Answer: Its GI50 is 17.9 µM.

Question: What about the TGI (NCI-H460 lung) of the same compound?
Answer: The TGI was > 50 µM and 32.7 µM.

Question: What about the TGI (NCI/ADR-RES ovarian) of the same compound?
Answer: Its TGI is greater than 50 µM.

Question: And the TGI (OVCAR-4 ovarian)?
Answer: The TGI was greater than 100 µM.

Question: And the GI50 (SK-MEL-28 melanoma)?
Answer: The GI50 was greater than 100 µM.

Question: And the TGI (SK-MEL-28 melanoma)?
Answer: Its TGI is greater than 100 µM.

Question: And the GI50 (UACC-62 melanoma)?
Answer: Its GI50 is greater than 100 µM.

Question: What about the TGI (UACC-62 melanoma) of the same compound?
Answer: Its TGI is greater than 100 µM.

Question: Which TGI (M19-MEL melanoma) does the source give for CCCCCCCCCCC(O)C1CCC(C(O)CCC(O)C2CCC(CCCCCCC[C@H](O)CC3=C[C@@H](C)OC3=O)O2)O1 (stereo not given in full) here?
Answer: Its TGI is greater than 100 µM.

Question: And the TGI (NCI-H226 lung)?
Answer: The TGI was 40.4 µM.

Question: And the TGI (NCI-H460 lung)?
Answer: The TGI was greater than 100 µM.

Question: What about the TGI (NCI/ADR-RES ovarian) of the same compound?
Answer: Its TGI is 8.23 µM.

Question: What about the TGI (OVCAR-4 ovarian) of the same compound?
Answer: The TGI was greater than 100 µM.

Question: And the TGI (SK-MEL-28 melanoma)?
Answer: Its TGI is greater than 100 µM.

Question: What about the GI50 (UACC-62 melanoma) of the same compound?
Answer: Its GI50 is 0.466 µM.

Question: What about the TGI (UACC-62 melanoma) of the same compound?
Answer: Its TGI is greater than 100 µM.

Question: C=C1C(=O)[C@@]23CC1C(O)[C@@H](OC(C)=O)[C@@H]2C1(C)C(OC(C)=O)C[C@@H](OC(C)=O)C(C)(C)[C@@H]1C[C@H]3OC(C)=O (stereo not given in full) was tested. Which GI50 (CCRF-CEM leukemia) did it give?
Answer: Its GI50 is 361 nM and 0.239 µg/mL.

Question: And the TGI (CCRF-CEM leukemia)?
Answer: Its TGI is 1.9 µM and 5.21 µg/mL.

Question: And the GI50 (M19-MEL melanoma)?
Answer: The GI50 was 2.23 µg/mL (≈ 4.17 µM).

Question: And the TGI (M19-MEL melanoma)?
Answer: Its TGI is 4.85 µg/mL.

Question: And the GI50 (MDA-MB-231 breast)?
Answer: The GI50 was 2.38 µg/mL (≈ 4.44 µM).

Question: What about the TGI (MDA-MB-231 breast) of the same compound?
Answer: Its TGI is 7.49 µg/mL.

Question: What about the GI50 (NCI-H226 lung) of the same compound?
Answer: The GI50 was 3.11 µg/mL.

Question: And the TGI (NCI-H226 lung)?
Answer: Its TGI is > 10 µM and 7.24 µg/mL.

Question: What about the GI50 (NCI-H460 lung) of the same compound?
Answer: The GI50 was > 10 µM and 7.27 µg/mL.

Question: What about the TGI (NCI-H460 lung) of the same compound?
Answer: The TGI was > 10 µM and 19.4 µg/mL.

Question: And the GI50 (NCI/ADR-RES ovarian)?
Answer: Its GI50 is 16.9 µg/mL (≈ 31.6 µM).

Question: What about the TGI (NCI/ADR-RES ovarian) of the same compound?
Answer: Its TGI is > 10 µM and 37.2 µg/mL.

Question: And the GI50 (OVCAR-4 ovarian)?
Answer: The GI50 was > 10 µM and 8.36 µg/mL.

Question: What about the TGI (OVCAR-4 ovarian) of the same compound?
Answer: The TGI was > 10 µM and 22.1 µg/mL.

Question: What about the GI50 (SK-MEL-28 melanoma) of the same compound?
Answer: The GI50 was 6.69 µM and 1.67 µg/mL.

Question: What about the TGI (SK-MEL-28 melanoma) of the same compound?
Answer: Its TGI is > 10 µM and 3.46 µg/mL.

Question: And the GI50 (UACC-62 melanoma)?
Answer: Its GI50 is 1.77 µg/mL.

Question: What about the TGI (UACC-62 melanoma) of the same compound?
Answer: The TGI was 3.53 µg/mL.
